# Assays:
# human DPP1 enzyme [1] = target: T1, human DPP1 enzyme (Homo sapiens, UniProt P53634); assay: Human DPP1 Enzyme Single-Point Percent Inhibition Testing (HL-60 lysate); assay type: biochemical; parameters: A crude lysate of HL-60 cells (ATCC; Manassas, VA) was used as a source of human DPP1 enzyme; host or cells: HL-60 cells (crude lysate); conditions: final compound concentration of 10 nM, 400 μM H-Gly-Arg-AMC, n = 1
# Experimental: Example 98. Human DPP1 Enzyme Single-Point Percent Inhibition Testing
# A crude lysate of HL-60 cells (ATCC; Manassas, VA) was used as a source of human DPP1 enzyme in the assay. Lysate was prepared in 1% Triton X-100 in PBS at a concentration of 20,000 live cells per μL of lysis buffer and was centrifuged at 16,000 rcf for 10 minutes at 4° C., after which supernatant was collected and flash-frozen in liquid nitrogen. Test articles were applied to human DPP1 enzyme in Assay Buffer (25 mM MES pH 6.0, 50 mM NaCl, 5 mM DTT) in a total reaction volume of 125 μL. 25 μL of compound diluted to 50 nM in Assay Buffer plus 5% DMSO was first added to 50 μL of HL-60 lysate diluted to contain a DPP1 enzyme concentration of roughly 1 ng/μL and allowed to pre-incubate for 10 minutes at 37° C. after which 50 μL of 1000 μM H-Gly-Arg-AMC substrate (Bachem; St. Torrance, CA) was added, giving final compound concentration of 10 nM, a final substrate concentration of 400 μM and a final DMSO concentration of 1%. Substrate cleavage was measured for 90 minutes at 37° C., with fluorescence at Excitation/Emission 350/450 nm measured every 5 minutes. DPP1 concentration was interpolated based on its activity relative to a standard curve of activated human recombinant DPP1 enzyme. Percent inhibition at 10 nM was calculated for each test article based on remaining DPP1 activity compared to enzyme activity in wells that received only vehicle control.
# Target sequence in this assay (P53634 25-463): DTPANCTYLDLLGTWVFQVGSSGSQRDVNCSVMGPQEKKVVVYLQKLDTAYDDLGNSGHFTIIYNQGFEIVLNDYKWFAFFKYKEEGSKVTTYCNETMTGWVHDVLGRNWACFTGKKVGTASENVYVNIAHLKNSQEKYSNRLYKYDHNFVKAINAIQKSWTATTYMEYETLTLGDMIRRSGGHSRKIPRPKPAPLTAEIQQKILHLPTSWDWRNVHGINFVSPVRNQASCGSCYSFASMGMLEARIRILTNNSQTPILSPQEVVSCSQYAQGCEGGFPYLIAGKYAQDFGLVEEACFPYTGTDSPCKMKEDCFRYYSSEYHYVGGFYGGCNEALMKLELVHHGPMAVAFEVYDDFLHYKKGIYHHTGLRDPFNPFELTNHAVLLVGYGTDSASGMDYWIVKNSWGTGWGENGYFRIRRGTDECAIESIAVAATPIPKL
# DPP1 in HL-60 cells [2] = target: T2, DPP1 in HL-60 cells (Homo sapiens, UniProt P53634); assay: DPP1 Cell Single-Point Percent Inhibition Testing; assay type: cell-based; parameters: host or cells: HL-60 cells; conditions: final compound concentration 5 nM, n = 1
# Experimental: Example 100. DPP1 Cell Single-Point Percent Inhibition Testing
# HL-60 cells (ATCC; Manassas, VA) were maintained in RPMI-1640 supplemented with 20% heat-inactivated FBS and 1× Antibiotic Antimycotic (Cytiva; Marlborough, MA). Media was changed every three to four days and cells were not allowed to exceed 1×10^6 cells per mL. Prior to assay, cells were collected by centrifugation at 500 rcf for 3 minutes, resuspended in RPMI (with no additional supplements) and counted. Cells were diluted in RPMI to a concentration of 5×10^5 live cells per mL and transferred to black 96-well plates for assay, 60 μL per well. Test articles were diluted to 25 nM in RPMI plus 0.5% DMSO, and 20 μL was added to each assay well. Compound was allowed to pre-incubate with cells with gentle shaking at 100 rpm for 60 minutes at 37° C. in a cell culture incubator maintained at 5% CO2, after which 20 μL of 500 μM H-Gly-Phe-AFC cell-permeable substrate (MP Biomedicals; Solon, OH) in RPMI was added to each well, giving final compound concentration of 5 nM, a final substrate concentration of 100 μM and a final DMSO concentration of 0.1%. Plates were returned to the incubator with shaking at 100 rpm for 30 minutes, after which fluorescence was measured at Excitation/Emission 400/505 nm. Percent Inhibition was calculated from RFU values by first subtracting background values (wells in which RPMI was substituted for cells) from each well, and then subtracting background-subtracted RFU derived from wells that received a final concentration of 10 μM brensocatib. This value represents the non-specific substrate cleavage from the HL-60 cells, and the remaining RFU should theoretically be solely the contribution of DPP1 enzyme activity. The final percent inhibition value was calculated for each test article based on remaining RFU compared to RFU from wells that received only vehicle control.
# human DPP1 enzyme [3] = target: T1, human DPP1 enzyme; assay: Human DPP1 Enzyme IC50 Assay; assay type: biochemical; parameters: was first proteolytically processed into its mature form using recombinant human cathepsin L; purchased R&D Systems; conditions: activated recombinant human DPP1, 400 μM H-Gly-Arg-AMC, 10 minutes pre-incubation at 37° C., pH 6.0; average of n runs; read-out: Avg. IC50 (Human DPP1 enzyme IC50 value ranges)
# Outline: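 Recombinant human DPP1, pre-activated with cathepsin L (pH 4.5), was preincubated with compound 10 min at 37 °C in MES pH 6.0, 50 mM NaCl, 5 mM DTT, 1% DMSO. Cleavage of 400 μM (final) H-Gly-Arg-AMC followed by fluorescence (350/450 nm) over 90 min at 37 °C; IC50 from four-parameter logistic fit versus no-compound control.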
# Target sequence in this assay (P53634 25-134 limits assumed): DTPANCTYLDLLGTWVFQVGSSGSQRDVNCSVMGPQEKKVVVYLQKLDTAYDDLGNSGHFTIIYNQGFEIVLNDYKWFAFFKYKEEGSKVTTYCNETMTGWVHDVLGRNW
# Target sequence in this assay (P53634 231-394 limits assumed): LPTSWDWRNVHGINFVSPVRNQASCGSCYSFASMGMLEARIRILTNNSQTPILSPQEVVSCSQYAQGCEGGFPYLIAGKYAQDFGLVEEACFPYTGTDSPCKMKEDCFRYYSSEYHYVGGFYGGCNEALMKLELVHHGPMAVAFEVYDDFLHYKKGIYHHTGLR
# Target sequence in this assay (P53634 395-463 limits assumed): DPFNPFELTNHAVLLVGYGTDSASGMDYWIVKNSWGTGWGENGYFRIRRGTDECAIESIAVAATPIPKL
# DPP1 in HL-60 cells [4] = target: T2, DPP1 in HL-60 cells; assay: DPP1 Cell IC50 assay; assay type: cell-based; parameters: host or cells: HL-60 cells; conditions: 60 min pre-incubation, H-Gly-Phe-AFC substrate, average of n runs, read-out: Avg. IC50 (DPP1 Cell IC50 value ranges)
# Outline: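 HL-60 cells in PBS (5×10^5 live cells per mL) pre-incubated with compound (0.5% DMSO) 60 min at 37° C, 5% CO2, then H-Gly-Phe-AFC substrate (500 μM stock) added for 30 min. Fluorescence at 400/505 nm; % inhibition vs vehicle wells, IC50 from four-parameter logistic fit.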
# T2 sequence (P53634 25-463): as the sequence (P53634 25-463) above
Structure (SMILES),inhibition at 0.01 µM (human DPP1 enzyme [1]) [%],inhibition at 0.005 µM (DPP1 in HL-60 cells [2]) [%],IC50 (human DPP1 enzyme [3]) [nM],IC50 (DPP1 in HL-60 cells [4]) [nM]
COC1CNC[C@@H](C(=O)N[C@H](C#N)Cc2ccc(-c3ccc4cnn(C)c4c3)cc2F)OC1 (stereo partly shown) [Compound H13],≥ 66.7,76.5 to 93.9,–,–
CO[C@H]1CCO[C@H](C(=O)N[C@H](C#N)Cc2ccc(-c3ccc4c(c3)C3(CCN(C)C3)OC4=O)cc2)CNC1 (stereo partly shown) [Compound F21],40 to 66.7,≤ 76.5,–,–
CO[C@@H]1CCNC[C@@H](C(=O)N[C@H](C#N)Cc2ccc(-c3ccc(CN4CCN(C)CC4)cc3)cc2F)OC1 [Compound F15],≥ 66.7,≤ 76.5,–,–
C[C@@H]1NC[C@@H](C(=O)N[C@H](C#N)Cc2ccc(-c3ccc4nnn(C)c4c3)cc2)OC[C@H]1O [Compound H24],≥ 66.7,≤ 76.5,–,–
N#C[C@H](Cc1ccc(-c2ccc(S(=O)(=O)N3CCC3)cc2)cc1F)NC(=O)[C@@H]1CNCCCCO1 [Compound 47],≤ 40,≤ 76.5,–,–
CO[C@@H]1CCNC[C@@H](C(=O)N[C@H](C#N)Cc2ccc(-c3ccc4c(c3)C3(CCN(C)C3)OC4=O)cc2)OC1 (stereo partly shown) [Compound F8],≥ 66.7,≤ 76.5,–,–
Cc1nc(C)c2cc(-c3ccc(C[C@@H](C#N)NC(=O)[C@@H]4CN[C@@H](C)[C@@H](O)CO4)cc3)cn2c1C [Compound A135],≤ 40,≤ 76.5,–,–
C[C@@H]1NC[C@@H](C(=O)N[C@H](C#N)Cc2ccc(-c3ccc4c(n3)CCCN4)cc2F)OC[C@@H]1O [Compound A107],≤ 40,≤ 76.5,–,–
COC1CNC[C@@H](C(=O)N[C@H](C#N)Cc2ccc(-c3cnc4c(n3)CCCC4)cc2F)OC1 (stereo partly shown) [Compound A91],≥ 66.7,≤ 76.5,–,–
Cc1cn2cc(-c3ccc(C[C@@H](C#N)NC(=O)[C@@H]4CN[C@@H](C)[C@@H](O)CO4)c(F)c3)cc2c(C)n1 [Compound A106],≤ 40,≤ 76.5,–,–
Cc1nc(C)c2cc(-c3ccc(C[C@@H](C#N)NC(=O)[C@@H]4CNCCCO4)cc3)cn2c1C [Compound A141],≤ 40,76.5 to 93.9,–,–
CO[C@@H]1CCNC[C@@H](C(=O)N[C@H](C#N)Cc2ccc(-c3cc4c(C)ncc(C)n4c3)cc2)OC1 [Compound A122],≥ 66.7,76.5 to 93.9,–,–
"CN1CCC2(CCc3cc4c(cc32)-c2cc(F)c(CC(C#N)NC(=O)[C@@H]3CNCCCO3)cc2OC4)CC1 (mixture of isomers) [Compound C3, (2S)—N-(1-cyano-2-{2-fluoro-1′-methyl-8,9-dihydro-6H-spiro[indeno[5,6-c]chromene-10,4′-piperidin]-3-yl}ethyl)-1,4-oxazepane-2-carboxamide]",–,–,< 5,> 2.5
N#C[C@H](Cc1ccc(-c2ccc3c(c2)[C@@]2(CCN(C4COC4)C2)COC3)cc1)NC(=O)[C@@H]1CNCCCO1 [Compound I6],–,–,5 to 15,> 2.5
COC1CNC[C@@H](C(=O)N[C@H](C#N)Cc2ccc(-c3ccc4c(F)nn(C)c4c3)cc2F)OC1 (stereo partly shown) [Compound A164],–,–,< 5,< 1
CN1C(=O)CCc2cc(-c3ccc(C[C@@H](C#N)NC(=O)[C@@H]4CNCC[C@@H](F)CO4)cc3)ccc21 [Compound A149],–,–,> 15,1 to 2.5
COC1CNC[C@@H](C(=O)N[C@H](C#N)Cc2cnc(-c3ccc4c(F)nn(C)c4c3)s2)OC1 (stereo partly shown) [Compound A169],–,–,< 5,< 1
"N#C[C@H](Cc1ccc(-c2cnn([C@@H]3CCOC3)c2)cc1)NC(=O)[C@@H]1CNCCCO1 [Compound D4, (2S)—N-[(1S)-1-cyano-2-(4-{1-[(3R)-oxolan-3-yl]pyrazol-4-yl}phenyl)ethyl]-1,4-oxazepane-2-carboxamide]",–,–,> 15,> 2.5
N#C[C@H](Cc1ccc(-c2ccc3c(c2)[C@]2(CCCN(c4ccsc4)C2)SC3)cc1)NC(=O)[C@@H]1CNCCCO1 [Compound I13],–,–,> 15,> 2.5
"N#C[C@H](Cc1ccc(-c2cc3n(c2)CCCNC3=O)cc1)NC(=O)[C@@H]1CNCCCO1 [Compound A12, (2S)—N-[(1S)-1-cyano-2-(4-{1-oxo-2H,3H,4H,5H-pyrrolo[1,2-a][1,4]diazepin-8-yl}phenyl)ethyl]-1,4-oxazepane-2-carboxamide]",–,–,> 15,> 2.5
C[C@@H]1NC[C@@H](C(=O)N[C@H](C#N)Cc2ccc(-c3ccc4c(c3)CCC(=O)N4C)cc2)OC[C@@H]1O [Compound A148],–,–,> 15,> 2.5
CO[C@H]1CNC[C@@H](C(=O)N[C@H](C#N)Cc2ccc(-c3cc4c(C)nc(C)cn4c3)cc2F)OC1 [Compound A88-B],–,–,< 5,< 1
"CO[C@@H]1CCNC[C@@H](C(=O)N[C@H](C#N)Cc2ccc(-c3cc4c(C)nc(C)cn4c3)cc2)OC1 [Compound A32, (2S,7R)—N-[(1S)-1-cyano-2-(4-{1,3-dimethylpyrrolo[1,2-a]pyrazin-7-yl}phenyl)ethyl]-7-methoxy-1,4-oxazocane-2-carboxamide]",–,–,> 15,1 to 2.5
Cn1nnc2cc3c(cc21)-c1cc(F)c(C[C@@H](C#N)NC(=O)[C@@H]2CNCCCO2)cc1OC3 [Compound C34],–,–,< 5,1 to 2.5
"N#C[C@H](Cc1ccc(-c2ccc3c(c2)N(C(N)=O)CCC3)cc1)NC(=O)[C@@H]1CNCCCO1 [Compound A20, 7-{4-[(2S)-2-cyano-2-[(2S)-1,4-oxazepan-2-ylformamido]ethyl]phenyl}-3,4-dihydro-2H-quinoline-1-carboxamide]",–,–,> 15,> 2.5
Cn1ccc2ncc(-c3ccc(C[C@@H](C#N)NC(=O)[C@@H]4CNCCCO4)cc3)cc21 [Compound A143],–,–,> 15,> 2.5
N#C[C@H](Cc1ccc(-c2ccc3c(c2)[C@@]2(CCCN(C4CCCCC4)C2)CS3)cc1)NC(=O)[C@@H]1CNCCCO1 [Compound I9],–,–,5 to 15,> 2.5
Cc1nc(C)c2cc(-c3ccc(C[C@@H](C#N)NC(=O)[C@@H]4CNCCCO4)cc3)cn2c1C [Compound A60],–,–,> 15,> 2.5
CN1C(=O)C2(CCN(C3CCOCC3)CC2)c2cc(-c3ccc(C[C@@H](C#N)NC(=O)[C@@H]4CNCCCO4)cc3)ccc21 [Compound 35],–,–,> 15,> 2.5

# — patent publication US20260008760A1, “DIPEPTIDYL PEPTIDASE 1 INHIBITORS AND USES THEREOF” (Insmed Incorporated, priority 2024, published 2026)
